Measurements as given in ChEMBL document CHEMBL1914371, “Development of a bivalent dopamine D₂ receptor agonist” (J Med Chem, 2011).

Assays:
D(2) dopamine receptor [1] = biological target: T1, D(2) dopamine receptor (Homo sapiens, UniProt P14416); test: Partial agonist activity at DRD2 Long receptor expressed in CHO cells assessed as inhibition of forskolin-stimulated cAMP accumulation by bioluminescence assay relative to quinpirole; assay type: functional, cell-based
D(1A) dopamine receptor = D(1A) dopamine receptor (Sus scrofa, UniProt P50130); test: Displacement of [3H]SCH 23390 from pig dopamine D1 receptor in striatal membrane; assay type: cell membranes, Striatum
Chain of D(1A) dopamine receptor (P50130 whole entry): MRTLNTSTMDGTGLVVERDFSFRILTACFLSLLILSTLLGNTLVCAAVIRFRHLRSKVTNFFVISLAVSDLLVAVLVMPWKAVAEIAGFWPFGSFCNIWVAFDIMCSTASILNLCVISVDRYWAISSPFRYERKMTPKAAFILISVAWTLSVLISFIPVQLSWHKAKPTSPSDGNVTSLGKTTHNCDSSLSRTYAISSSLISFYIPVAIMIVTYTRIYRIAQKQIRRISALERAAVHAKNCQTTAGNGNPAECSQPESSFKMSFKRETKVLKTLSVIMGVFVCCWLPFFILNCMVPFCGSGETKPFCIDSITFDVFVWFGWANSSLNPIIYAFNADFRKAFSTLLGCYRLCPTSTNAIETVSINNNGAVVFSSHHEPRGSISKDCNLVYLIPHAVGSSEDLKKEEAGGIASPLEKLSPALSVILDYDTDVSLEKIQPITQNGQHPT

D(2) dopamine receptor [2] = biological target: T1, D(2) dopamine receptor; test: Displacement of [3H]spiperone from human DRD2 Long receptor expressed in chinese hamster CHO cells by radioligand binding assay; assay type: cell-based
D(2) dopamine receptor [3] = biological target: T1, D(2) dopamine receptor; test: Displacement of [3H]spiperone from human DRD2 short receptor expressed in chinese hamster CHO cells by radioligand binding assay; assay type: cell-based
D(3) dopamine receptor = D(3) dopamine receptor (Homo sapiens, UniProt P35462); test: Displacement of [3H]spiperone from human dopamine D3 receptor expressed in chinese hamster CHO cells by radioligand binding assay; assay type: cell-based
Chain of D(3) dopamine receptor (P35462 whole entry): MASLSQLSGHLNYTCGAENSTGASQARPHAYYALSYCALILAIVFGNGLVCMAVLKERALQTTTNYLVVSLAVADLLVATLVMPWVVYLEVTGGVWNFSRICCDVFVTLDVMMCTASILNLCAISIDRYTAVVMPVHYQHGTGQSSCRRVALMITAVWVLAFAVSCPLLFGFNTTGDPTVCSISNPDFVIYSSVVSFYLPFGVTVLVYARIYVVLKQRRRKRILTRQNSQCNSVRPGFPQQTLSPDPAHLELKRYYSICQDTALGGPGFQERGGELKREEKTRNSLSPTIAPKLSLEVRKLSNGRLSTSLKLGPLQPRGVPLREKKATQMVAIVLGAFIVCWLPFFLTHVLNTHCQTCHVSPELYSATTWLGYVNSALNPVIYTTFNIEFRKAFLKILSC

D(4) dopamine receptor = biological target: T2, D(4) dopamine receptor (Homo sapiens, UniProt P21917); test: Displacement of [3H]spiperone from human dopamine D4.4 receptor expressed in chinese hamster CHO cells by radioligand binding assay; assay type: cell-based
T2 sequence (P21917 whole entry): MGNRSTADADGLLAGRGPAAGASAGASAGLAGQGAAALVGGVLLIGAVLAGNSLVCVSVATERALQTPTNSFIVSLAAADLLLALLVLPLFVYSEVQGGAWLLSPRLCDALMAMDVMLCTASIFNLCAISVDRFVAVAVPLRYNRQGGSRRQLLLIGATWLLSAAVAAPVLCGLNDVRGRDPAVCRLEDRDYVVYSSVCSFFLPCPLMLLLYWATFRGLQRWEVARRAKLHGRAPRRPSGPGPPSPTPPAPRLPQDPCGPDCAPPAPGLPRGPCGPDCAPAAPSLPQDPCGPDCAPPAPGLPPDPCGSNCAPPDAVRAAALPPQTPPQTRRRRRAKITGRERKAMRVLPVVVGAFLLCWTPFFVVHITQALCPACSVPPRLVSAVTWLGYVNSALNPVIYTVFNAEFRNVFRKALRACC

D(2) dopamine receptor [4] = biological target: T1, D(2) dopamine receptor; test: Partial agonist activity at DRD2 Long receptor expressed in CHO cells assessed as inhibition of forskolin-stimulated cAMP accumulation by bioluminescence assay; assay type: functional, cell-based
D(2) dopamine receptor [5] = biological target: T1, D(2) dopamine receptor; test: Antagonist activity at DRD2 Long receptor expressed in CHO cells assessed as […] of forskolin-stimulated cAMP accumulation by bioluminescence assay relative to quinpirole; assay type: functional, cell-based
D(2) dopamine receptor [6] = biological target: T1, D(2) dopamine receptor; test: Agonist activity at DRD2 Long receptor expressed in CHO cells assessed as inhibition of forskolin-stimulated cAMP accumulation by bioluminescence assay; assay type: functional, cell-based

T1 sequence (P14416 whole entry): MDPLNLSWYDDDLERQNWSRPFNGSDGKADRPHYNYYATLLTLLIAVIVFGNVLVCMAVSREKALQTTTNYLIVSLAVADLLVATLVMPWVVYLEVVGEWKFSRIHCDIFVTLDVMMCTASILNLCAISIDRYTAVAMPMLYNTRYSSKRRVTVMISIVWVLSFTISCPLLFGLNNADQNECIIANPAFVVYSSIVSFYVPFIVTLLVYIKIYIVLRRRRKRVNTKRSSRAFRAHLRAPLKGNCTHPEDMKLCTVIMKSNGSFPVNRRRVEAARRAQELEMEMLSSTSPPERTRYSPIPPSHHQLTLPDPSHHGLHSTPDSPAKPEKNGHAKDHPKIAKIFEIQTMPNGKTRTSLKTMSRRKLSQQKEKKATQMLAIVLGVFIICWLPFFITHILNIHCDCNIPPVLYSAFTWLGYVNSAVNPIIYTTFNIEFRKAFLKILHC

**Q.** Which Efficacy (D(2) dopamine receptor [1]) does the source give for CCCN(CCCCNC(=O)c1ccc(OCCCc2cn(CCCCCCCCn3cc(CCCOc4ccc(CN5CCN(c6ccccc6OC)CC5)cc4OC)nn3)nn2)c(OC)c1)C1Cc2ccccc2C1 here?
**A.** 13%

**Q.** What about the Ki (D(1A) dopamine receptor) of the same compound?
**A.** 330 nM

**Q.** What about the Ki (D(2) dopamine receptor [2]) of the same compound?
**A.** 14 nM

**Q.** What about the Ki (D(2) dopamine receptor [3]) of the same compound?
**A.** 8.8 nM

**Q.** And the Ki (D(3) dopamine receptor)?
**A.** 1.2 nM

**Q.** What about the Ki (D(4) dopamine receptor) of the same compound?
**A.** 22 nM

**Q.** What about the EC50 (D(2) dopamine receptor [4]) of the same compound?
**A.** 380 nM

**Q.** With CCCCn1cc(CCCOc2ccc(C(=O)NCCCCN3CCN(c4ccccc4OC)CC3)cc2OC)nn1 as the compound, how does the Ki (D(1A) dopamine receptor) read?
**A.** 1200 nM

**Q.** What about the Ki (D(2) dopamine receptor [2]) of the same compound?
**A.** 17 nM

**Q.** What about the Ki (D(2) dopamine receptor [3]) of the same compound?
**A.** 12 nM

**Q.** What about the Ki (D(3) dopamine receptor) of the same compound?
**A.** 2 nM

**Q.** And the Ki (D(4) dopamine receptor)?
**A.** 84 nM

**Q.** What does the source list for CCCN(CCCCNC(=O)c1ccc(OCCCc2cn(CCCCCCCCn3cc(CCCOc4ccc(C(=O)NCCCCN5CCN(c6ccccc6OC)CC5)cc4OC)nn3)nn2)c(OC)c1)C1Cc2ccccc2C1?
**A.** Ki (D(1A) dopamine receptor): 200 nM; Ki (D(2) dopamine receptor [2]): 25 nM; Ki (D(2) dopamine receptor [3]): 17 nM; Ki (D(3) dopamine receptor): 2 nM; Ki (D(4) dopamine receptor): 40 nM; Efficacy (D(2) dopamine receptor [5]): < 3%

**Q.** Which Ki (D(1A) dopamine receptor) does the source give for CCCN(CCCCNC(=O)c1ccc(OCCCc2cn(CCCCCCCCn3cc(CCCOc4ccc(C(=O)NCCCCN(CCC)C5Cc6ccccc6C5)cc4OC)nn3)nn2)c(OC)c1)C1Cc2ccccc2C1 here?
**A.** 510 nM

**Q.** And the Ki (D(2) dopamine receptor [2])?
**A.** 16 nM

**Q.** And the Ki (D(2) dopamine receptor [3])?
**A.** 16 nM

**Q.** And the Ki (D(3) dopamine receptor)?
**A.** 1.8 nM

**Q.** What about the Ki (D(4) dopamine receptor) of the same compound?
**A.** 34 nM

**Q.** And the EC50 (D(2) dopamine receptor [6])?
**A.** 440 nM

**Q.** Which Ki (D(1A) dopamine receptor) does the source give for COc1cc(C(=O)NCCCCN2CCN(c3ccccc3OC)CC2)ccc1OCCCc1cn(CCCCCCCCn2cc(CCCOc3ccc(C(=O)NCCCCN4CCN(c5ccccc5OC)CC4)cc3OC)nn2)nn1 here?
**A.** 2800 nM

**Q.** And the Ki (D(2) dopamine receptor [2])?
**A.** 110 nM

**Q.** What about the Ki (D(2) dopamine receptor [3]) of the same compound?
**A.** 110 nM

**Q.** What about the Ki (D(3) dopamine receptor) of the same compound?
**A.** 12 nM

**Q.** What about the Ki (D(4) dopamine receptor) of the same compound?
**A.** 660 nM

**Q.** What does the source list for CCCCn1cc(CCCOc2ccc(C(=O)NCCCCN(CCC)C3Cc4ccccc4C3)cc2OC)nn1?
**A.** Ki (D(1A) dopamine receptor): 6000 nM; Ki (D(2) dopamine receptor [2]): 12 nM; Ki (D(2) dopamine receptor [3]): 4.1 nM; Ki (D(3) dopamine receptor): 0.71 nM; Ki (D(4) dopamine receptor): 42 nM; EC50 (D(2) dopamine receptor [6]): 13 nM
